The source made the active and inactive calls. No cut-off for these calls is given here.
Legend:
[1] = target: D(3) dopamine receptor (Homo sapiens) (UniProt P35462); settings: Compound concentration 10.0 uM
[2] = target: Sigma non-opioid intracellular receptor 1 (Homo sapiens) (UniProt Q99720); experiment: Sigma 1 Eurofins-Panlabs radioligand binding assay; design: ligand concentration 8 nM; settings: Compound concentration 10.0 uM
Oryctolagus cuniculus = species on record: Oryctolagus cuniculus; experiment: Inhibition of Purinergic P2X at 10 µM in the Eurofins-Panlabs radioligand binding assay (Eurofins_assay_268700); format: protein assay; settings: Compound concentration 10.0 uM
[3] = target: Platelet-activating factor receptor (Homo sapiens) (UniProt P25105); experiment: Inhibition of Platelet Activating Factor (PAF) at 10 µM in the Eurofins-Panlabs radioligand binding assay (Eurofins_assay_265010); settings: Compound concentration 10.0 uM
[4] = target: Delta-type opioid receptor (Homo sapiens) (UniProt P41143); settings: Compound concentration 10.0 uM
[5] = target: T1, Muscarinic acetylcholine receptor M1 (Homo sapiens) (UniProt P11229); settings: Compound concentration 10.0 uM
T1 sequence (whole entry): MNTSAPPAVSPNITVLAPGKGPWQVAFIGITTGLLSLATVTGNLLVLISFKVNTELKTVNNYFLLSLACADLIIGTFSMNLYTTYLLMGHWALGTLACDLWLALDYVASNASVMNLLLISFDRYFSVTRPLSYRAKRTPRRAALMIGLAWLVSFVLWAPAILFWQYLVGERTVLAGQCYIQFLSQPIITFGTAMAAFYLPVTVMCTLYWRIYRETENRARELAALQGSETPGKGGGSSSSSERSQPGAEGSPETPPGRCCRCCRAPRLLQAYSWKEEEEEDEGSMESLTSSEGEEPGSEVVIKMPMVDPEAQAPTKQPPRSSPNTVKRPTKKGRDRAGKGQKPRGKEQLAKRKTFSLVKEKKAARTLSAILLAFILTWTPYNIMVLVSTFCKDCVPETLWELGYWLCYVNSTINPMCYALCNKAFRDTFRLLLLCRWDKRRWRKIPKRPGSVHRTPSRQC

[6] = target: Sodium-dependent dopamine transporter (Homo sapiens) (UniProt Q01959); settings: Compound concentration 10.0 uM
[7] = target: Prostaglandin E2 receptor EP4 subtype (Homo sapiens) (UniProt P35408); experiment: Inhibition of Prostanoid EP4 at 10 µM in the Eurofins-Panlabs radioligand binding assay (Eurofins_assay_268420); design: ligand concentration 1 nM; settings: Compound concentration 10.0 uM
[8] = target: Adenosine receptor A3 (Homo sapiens) (UniProt P0DMS8); settings: Compound concentration 10.0 uM
[9] = target: Adenosine receptor A1 (Homo sapiens) (UniProt P30542); settings: Compound concentration 10.0 uM
[10] = target: B1 bradykinin receptor (Homo sapiens) (UniProt P46663); experiment: Inhibition of Bradykinin B1 at 10 µM in the Eurofins-Panlabs radioligand binding assay (Eurofins_assay_212510); settings: Compound concentration 10.0 uM
[11] = target: T2, GABA-A receptor; anion channel (Rattus norvegicus) (UniProt O09028+P15431+P18506+P18508+P19969+P20236+P23574+P23576+P28471+P28473+P30191+P62813+P63079+P63138+Q91ZM7+Q9ES14); experiment: Inhibition of GABAA, Muscimol, Central at 10 µM in the Eurofins-Panlabs radioligand binding assay (Eurofins_assay_226500); format: protein-complex assay; settings: Compound concentration 10.0 uM
[12] = target: Epidermal growth factor receptor (Homo sapiens) (UniProt P00533); experiment: Inhibition of Epidermal Growth Factor (EGF) at 10 µM in the Eurofins-Panlabs radioligand binding assay (Eurofins_assay_225510); settings: Compound concentration 10.0 uM
[13] = target: Endothelin receptor type B (Homo sapiens) (UniProt P24530); settings: Compound concentration 10.0 uM
Rattus norvegicus [14] = species on record: Rattus norvegicus; experiment: Inhibition of Rolipram at 10 µM in the Eurofins-Panlabs radioligand binding assay (Eurofins_assay_268811); format: protein assay; design: ligand concentration 1.8 nM; settings: Compound concentration 10.0 uM
[15] = target: Alpha-1A adrenergic receptor (Homo sapiens) (UniProt P35348); settings: Rattus norvegicus; Compound concentration 10.0 uM
[16] = target: Mu-type opioid receptor (Homo sapiens) (UniProt P35372); settings: Compound concentration 10.0 uM
Rattus norvegicus [17] = species on record: Rattus norvegicus; experiment: Testosterone Eurofins-Panlabs radioligand binding assay; design: ligand concentration 1.5 nM; settings: Compound concentration 10.0 uM
Mus musculus = species on record: Mus musculus; experiment: Inhibition of Phorbol Ester at 10 µM in the Eurofins-Panlabs radioligand binding assay (Eurofins_assay_264500); design: ligand concentration 3 nM; settings: Compound concentration 10.0 uM
[18] = target: Sigma non-opioid intracellular receptor 1 (Homo sapiens) (UniProt Q99720); experiment: Inhibition of Sigma 1 at 10 µM in the Eurofins-Panlabs radioligand binding assay (Eurofins_assay_278110); design: ligand concentration 8 nM; settings: Compound concentration 10.0 uM
[19] = target: T2, GABA-A receptor; anion channel (Rattus norvegicus); settings: Compound concentration 10.0 uM
[20] = target: Neuropeptide Y receptor type 1 (Homo sapiens) (UniProt P25929); experiment: Inhibition of Neuropeptide Y Y1 at 10 µM in the Eurofins-Panlabs radioligand binding assay (Eurofins_assay_257010); settings: Compound concentration 10.0 uM
[21] = target: voltage-gated sodium channel, site 2 (Rattus norvegicus, UniProt F1LQQ7+O08562+O88420+O88457+P04774+P04775+P08104+P15389+P15390+Q62968); experiment: Inhibition of Sodium Channel, Site 2 at 10 µM in the Eurofins-Panlabs radioligand binding assay (Eurofins_assay_279510); format: protein assay; design: ligand concentration 5 nM, non-specific ligand with concentration 100 µM Veratridine, incubation time 60 min, incubation temperature 37 °C; settings: male, Wistar, rat whole brain (except cerebellum) membranes, probe [3H] Batrachotoxinin, compound concentration 10 uM
[22] = target: Glucocorticoid receptor (Homo sapiens) (UniProt P04150); settings: Compound concentration 10.0 uM
[23] = target: Cysteinyl leukotriene receptor 1 (Homo sapiens) (UniProt Q9Y271); experiment: Inhibition of Leukotriene, Cysteinyl CysLT1 at 10 µM in the Eurofins-Panlabs radioligand binding assay (Eurofins_assay_250460); design: ligand concentration 0.3 nM, non-specific ligand with concentration 0.3 µM Leukotriene D4, incubation time 30 min, incubation temperature 25 °C; settings: Compound concentration 10.0 uM
[24] = target: Mu-type opioid receptor (Homo sapiens) (UniProt P35372); settings: Compound concentration 10.0 uM; remark: listed apart in the source
Rattus norvegicus [25] = species on record: Rattus norvegicus; settings: Compound concentration 10.0 uM
[26] = target: Macrophage metalloelastase (Homo sapiens, UniProt P39900); experiment: Biophysical assay (SPR biosensor-based assay)
[27] = target: Sodium-dependent noradrenaline transporter (Homo sapiens) (UniProt P23975); settings: Compound concentration 10.0 uM
Rattus norvegicus [28] = species on record: Rattus norvegicus; experiment: Inhibition of Glutamate, NMDA, Phencyclidine at 10 µM in the Eurofins-Panlabs radioligand binding assay (Eurofins_assay_233000); format: protein-complex assay; settings: Compound concentration 10.0 uM
[29] = target: Gamma-aminobutyric acid type B receptor subunit 1 (Homo sapiens) (UniProt Q9UBS5); experiment: Inhibition of GABAB1A at compound concentration of 10.0 uM in the Eurofins-Panlabs radioligand binding assay (Eurofins_assay_228610); design: ligand concentration 4 nM; settings: Compound concentration 10.0 uM
[30] = target: Sodium-dependent serotonin transporter (Homo sapiens) (UniProt P31645); settings: Compound concentration 10.0 uM

Sigma non-opioid intracellular receptor 1 (Homo sapiens), sequence (Q99720 whole entry): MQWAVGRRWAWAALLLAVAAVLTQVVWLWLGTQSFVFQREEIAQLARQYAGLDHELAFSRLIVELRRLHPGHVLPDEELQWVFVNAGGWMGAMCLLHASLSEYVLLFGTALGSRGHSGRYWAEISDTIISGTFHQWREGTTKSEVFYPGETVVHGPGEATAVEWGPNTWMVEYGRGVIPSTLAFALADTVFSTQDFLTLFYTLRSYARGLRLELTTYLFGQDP
Mu-type opioid receptor (Homo sapiens), sequence (P35372 whole entry): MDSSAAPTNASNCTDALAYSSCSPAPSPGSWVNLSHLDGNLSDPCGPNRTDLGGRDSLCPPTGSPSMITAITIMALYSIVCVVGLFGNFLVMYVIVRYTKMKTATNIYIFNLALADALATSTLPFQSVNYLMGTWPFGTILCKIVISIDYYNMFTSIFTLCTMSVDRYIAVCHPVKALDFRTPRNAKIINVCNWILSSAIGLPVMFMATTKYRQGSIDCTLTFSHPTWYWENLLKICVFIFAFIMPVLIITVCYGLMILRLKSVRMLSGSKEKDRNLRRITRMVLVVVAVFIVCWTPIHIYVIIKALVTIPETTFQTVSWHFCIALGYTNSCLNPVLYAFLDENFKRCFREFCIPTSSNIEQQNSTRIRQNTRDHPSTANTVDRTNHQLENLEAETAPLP
Gamma-aminobutyric acid type B receptor subunit 1 (Homo sapiens), sequence (Q9UBS5 whole entry): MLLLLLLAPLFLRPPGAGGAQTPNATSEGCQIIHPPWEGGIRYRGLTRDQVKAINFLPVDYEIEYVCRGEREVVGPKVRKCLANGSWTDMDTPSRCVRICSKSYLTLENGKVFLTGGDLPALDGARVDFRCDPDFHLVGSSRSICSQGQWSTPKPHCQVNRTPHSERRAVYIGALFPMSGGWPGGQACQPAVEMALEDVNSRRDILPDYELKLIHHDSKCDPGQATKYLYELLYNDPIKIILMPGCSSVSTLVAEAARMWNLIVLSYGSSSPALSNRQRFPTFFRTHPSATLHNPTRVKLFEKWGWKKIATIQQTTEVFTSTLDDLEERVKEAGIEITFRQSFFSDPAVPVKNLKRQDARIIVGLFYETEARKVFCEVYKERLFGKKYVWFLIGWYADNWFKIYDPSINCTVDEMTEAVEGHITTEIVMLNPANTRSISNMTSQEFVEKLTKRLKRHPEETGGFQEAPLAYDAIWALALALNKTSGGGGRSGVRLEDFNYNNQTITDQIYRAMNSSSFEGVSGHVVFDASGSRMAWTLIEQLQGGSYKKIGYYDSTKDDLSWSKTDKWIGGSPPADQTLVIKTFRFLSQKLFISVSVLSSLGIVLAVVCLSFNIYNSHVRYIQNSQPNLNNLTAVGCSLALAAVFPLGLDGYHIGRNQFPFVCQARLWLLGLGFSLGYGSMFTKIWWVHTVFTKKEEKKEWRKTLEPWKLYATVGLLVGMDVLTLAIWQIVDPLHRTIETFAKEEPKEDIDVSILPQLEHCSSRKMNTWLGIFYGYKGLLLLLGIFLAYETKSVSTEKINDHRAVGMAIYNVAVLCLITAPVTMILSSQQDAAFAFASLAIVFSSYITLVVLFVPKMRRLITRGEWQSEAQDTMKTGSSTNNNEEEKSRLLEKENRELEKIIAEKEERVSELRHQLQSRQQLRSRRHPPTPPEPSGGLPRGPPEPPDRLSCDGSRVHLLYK
B1 bradykinin receptor (Homo sapiens), sequence (P46663 whole entry): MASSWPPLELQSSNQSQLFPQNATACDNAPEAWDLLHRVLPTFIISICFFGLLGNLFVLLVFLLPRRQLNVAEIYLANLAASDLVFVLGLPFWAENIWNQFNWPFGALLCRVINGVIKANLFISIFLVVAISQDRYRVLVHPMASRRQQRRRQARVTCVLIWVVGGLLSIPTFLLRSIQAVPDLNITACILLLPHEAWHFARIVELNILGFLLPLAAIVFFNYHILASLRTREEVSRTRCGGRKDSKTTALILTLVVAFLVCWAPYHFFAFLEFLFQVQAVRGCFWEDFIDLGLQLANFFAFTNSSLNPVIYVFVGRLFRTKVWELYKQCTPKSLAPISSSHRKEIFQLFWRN
Adenosine receptor A3 (Homo sapiens), sequence (P0DMS8 whole entry): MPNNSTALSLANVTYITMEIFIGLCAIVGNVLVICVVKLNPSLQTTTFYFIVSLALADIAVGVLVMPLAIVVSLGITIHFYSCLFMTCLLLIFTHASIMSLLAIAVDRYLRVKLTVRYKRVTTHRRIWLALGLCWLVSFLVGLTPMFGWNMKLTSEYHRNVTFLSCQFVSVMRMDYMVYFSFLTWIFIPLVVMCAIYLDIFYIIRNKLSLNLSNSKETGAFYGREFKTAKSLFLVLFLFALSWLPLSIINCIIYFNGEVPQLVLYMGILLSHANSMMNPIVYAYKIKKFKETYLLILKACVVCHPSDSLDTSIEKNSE
Cysteinyl leukotriene receptor 1 (Homo sapiens), sequence (Q9Y271 whole entry): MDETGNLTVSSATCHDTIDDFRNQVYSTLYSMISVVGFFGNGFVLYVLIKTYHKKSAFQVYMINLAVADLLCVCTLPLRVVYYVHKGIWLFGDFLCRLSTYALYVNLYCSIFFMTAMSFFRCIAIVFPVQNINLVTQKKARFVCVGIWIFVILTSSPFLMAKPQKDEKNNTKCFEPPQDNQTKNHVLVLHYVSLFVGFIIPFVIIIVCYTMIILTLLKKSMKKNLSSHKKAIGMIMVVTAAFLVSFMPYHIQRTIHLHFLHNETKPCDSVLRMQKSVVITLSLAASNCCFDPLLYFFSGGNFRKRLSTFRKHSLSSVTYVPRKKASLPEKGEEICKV
D(3) dopamine receptor (Homo sapiens), sequence (P35462 whole entry): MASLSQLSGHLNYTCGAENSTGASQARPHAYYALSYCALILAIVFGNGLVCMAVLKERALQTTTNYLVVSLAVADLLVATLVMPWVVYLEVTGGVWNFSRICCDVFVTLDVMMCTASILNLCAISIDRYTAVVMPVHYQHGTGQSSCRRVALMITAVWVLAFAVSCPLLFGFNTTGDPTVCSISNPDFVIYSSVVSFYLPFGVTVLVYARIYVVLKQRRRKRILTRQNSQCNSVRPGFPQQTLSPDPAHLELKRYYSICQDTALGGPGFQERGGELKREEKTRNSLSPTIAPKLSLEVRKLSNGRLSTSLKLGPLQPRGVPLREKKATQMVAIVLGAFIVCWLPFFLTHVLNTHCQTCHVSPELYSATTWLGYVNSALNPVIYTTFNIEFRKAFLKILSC
Epidermal growth factor receptor (Homo sapiens), sequence (P00533 whole entry): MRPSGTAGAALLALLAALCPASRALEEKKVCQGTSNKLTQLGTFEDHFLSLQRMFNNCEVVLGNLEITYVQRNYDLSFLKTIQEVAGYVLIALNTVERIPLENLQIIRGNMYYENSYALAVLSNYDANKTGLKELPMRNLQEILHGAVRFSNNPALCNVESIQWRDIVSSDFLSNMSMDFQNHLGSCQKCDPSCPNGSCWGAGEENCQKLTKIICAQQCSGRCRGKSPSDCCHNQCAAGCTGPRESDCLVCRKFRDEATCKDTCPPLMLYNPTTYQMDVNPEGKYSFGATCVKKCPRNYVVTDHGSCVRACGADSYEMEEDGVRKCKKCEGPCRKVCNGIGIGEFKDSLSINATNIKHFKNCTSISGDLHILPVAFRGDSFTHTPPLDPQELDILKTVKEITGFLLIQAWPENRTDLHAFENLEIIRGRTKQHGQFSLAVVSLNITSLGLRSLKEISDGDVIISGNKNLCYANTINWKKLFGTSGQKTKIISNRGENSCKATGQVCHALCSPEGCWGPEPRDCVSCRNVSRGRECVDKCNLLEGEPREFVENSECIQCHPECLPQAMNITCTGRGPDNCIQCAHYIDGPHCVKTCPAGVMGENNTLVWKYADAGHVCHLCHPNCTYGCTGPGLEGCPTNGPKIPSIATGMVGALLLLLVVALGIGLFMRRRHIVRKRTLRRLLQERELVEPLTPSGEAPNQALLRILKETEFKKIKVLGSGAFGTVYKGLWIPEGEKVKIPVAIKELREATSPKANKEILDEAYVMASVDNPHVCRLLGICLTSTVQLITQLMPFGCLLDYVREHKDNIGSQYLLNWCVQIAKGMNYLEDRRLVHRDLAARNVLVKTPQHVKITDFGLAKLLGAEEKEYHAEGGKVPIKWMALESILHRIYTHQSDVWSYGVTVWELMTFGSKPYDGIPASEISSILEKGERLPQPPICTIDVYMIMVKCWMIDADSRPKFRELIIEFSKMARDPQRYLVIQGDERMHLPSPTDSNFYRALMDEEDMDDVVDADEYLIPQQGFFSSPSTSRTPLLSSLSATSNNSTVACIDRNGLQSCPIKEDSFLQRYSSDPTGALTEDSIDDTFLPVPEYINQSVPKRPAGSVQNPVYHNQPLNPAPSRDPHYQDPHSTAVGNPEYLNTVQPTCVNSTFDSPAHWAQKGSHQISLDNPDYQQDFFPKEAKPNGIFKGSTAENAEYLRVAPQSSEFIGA
Sodium-dependent noradrenaline transporter (Homo sapiens), sequence (P23975 whole entry): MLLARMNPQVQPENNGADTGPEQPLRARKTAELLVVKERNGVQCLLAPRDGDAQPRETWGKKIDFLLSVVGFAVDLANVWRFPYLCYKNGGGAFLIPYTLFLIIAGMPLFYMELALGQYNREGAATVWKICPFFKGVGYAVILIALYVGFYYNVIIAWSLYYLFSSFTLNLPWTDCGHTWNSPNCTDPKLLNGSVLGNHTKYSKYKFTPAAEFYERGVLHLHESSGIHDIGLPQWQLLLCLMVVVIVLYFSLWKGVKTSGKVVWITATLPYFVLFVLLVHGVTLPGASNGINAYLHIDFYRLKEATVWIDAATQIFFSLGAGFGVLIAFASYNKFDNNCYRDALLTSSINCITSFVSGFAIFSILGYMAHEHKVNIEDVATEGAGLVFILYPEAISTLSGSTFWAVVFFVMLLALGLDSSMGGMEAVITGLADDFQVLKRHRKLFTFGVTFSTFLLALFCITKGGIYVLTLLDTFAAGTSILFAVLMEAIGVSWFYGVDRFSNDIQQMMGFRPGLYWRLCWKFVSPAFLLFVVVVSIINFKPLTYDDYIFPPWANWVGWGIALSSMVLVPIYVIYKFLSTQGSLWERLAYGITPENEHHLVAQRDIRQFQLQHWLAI

What does the source list for `O=C(O)[C@H]1[C@H](Cn2nnc3ccccc3c2=O)CC[C@@H]1C(=O)c1ccc(OCCC2CCOCC2)cc1` [BAY-7598]?
inhibition [1]: 12%; inhibition [2]: 15%; inhibition (Oryctolagus cuniculus): -1%; inhibition [3]: 6%; inhibition [4]: 9%; inhibition [5]: 0%; inhibition [6]: 0%; inhibition [7]: 19%; inhibition [8]: 13%; inhibition [9]: -2%; inhibition [10]: 6%; inhibition [11]: 10%; inhibition [12]: 7%; inhibition [13]: 18%; inhibition (Rattus norvegicus [14]): 10%; inhibition [15]: 1%; inhibition [16]: -9.72%; inhibition (Rattus norvegicus [17]): 12%; inhibition (Mus musculus): 4%; inhibition [18]: -7%; inhibition [19]: -2%; inhibition [20]: 1%; inhibition at 60 min, 10 µM [21]: -1% (not active); inhibition [22]: 12%; inhibition [23]: 8%; inhibition [24]: -9%; inhibition (Rattus norvegicus [25]): 1%; Kd [26]: 4 pM (active); inhibition [27]: 6%; inhibition (Rattus norvegicus [28]): 4%; inhibition [29]: 0%; inhibition [30]: 9%
